Results reported in the supplement of paper PMC10307832.

How the values were obtained:
Experiment in all cases: relative viability (nuclei count vs DMSO), 5 days (fraction); higher = more cells survive
Kobe2602 + Dasatinib = compound: C1=CC(=CC=C1NC(=S)NNC2=C(C=C(C=C2[N+](=O)[O-])C(F)(F)F)[N+](=O)[O-])F [Kobe2602] + Cc1nc(Nc2ncc(C(=O)Nc3c(C)cccc3Cl)s2)cc(N2CCN(CCO)CC2)n1 [Dasatinib] (partner 0.075 µM)
In short: (§1)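 Dosing by pin tool came one day after lung cancer cell lines were seeded in 1536-well plates, using either one drug or a fixed anchor-drug dose plus five library-drug doses (not always all listed) in √10 steps. After 5 days, nuclei were counted on 4× images. Relative viability is treated-well nuclei count divided by vehicle-well nuclei count, and values are medians of duplicate plates.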

Cabozantinib + OSI-027 = compound: COc1cc2nccc(Oc3ccc(NC(=O)C4(C(=O)Nc5ccc(F)cc5)CC4)cc3)c2cc1OC [Cabozantinib] + COc1cccc2cc(-c3nc([C@H]4CC[C@H](C(=O)O)CC4)n4ncnc(N)c34)[nH]c12 [OSI-027] (partner 0.5 µM)
In short: as §1

[1] = compound: COc1cc2nccc(Oc3ccc(NC(=O)C4(C(=O)Nc5ccc(F)cc5)CC4)cc3)c2cc1OC [Cabozantinib] + Nc1nc2[nH]cc(CCc3ccc(C(=O)N[C@@H](CCC(=O)O)C(=O)O)cc3)c2c(=O)[nH]1 [Pemetrexed] (partner 0.2 µM)
In short: as §1

Kobe2602 + Alpelisib = compound: C1=CC(=CC=C1NC(=S)NNC2=C(C=C(C=C2[N+](=O)[O-])C(F)(F)F)[N+](=O)[O-])F [Kobe2602] + Cc1nc(NC(=O)N2CCC[C@H]2C(N)=O)sc1-c1ccnc(C(C)(C)C(F)(F)F)c1 [Alpelisib] (partner 2 µM)
In short: as §1

Cell Line | relative viability (Kobe2602 + Dasatinib; first compound 0.2 µM) | relative viability (Kobe2602 + Dasatinib; first compound 0.6325 µM) | relative viability (Kobe2602 + Dasatinib; first compound 2 µM) | relative viability (Kobe2602 + Dasatinib; first compound 6.325 µM) | relative viability (Kobe2602 + Dasatinib; first compound 20 µM) | relative viability (Cabozantinib + OSI-027; first compound 0.02 µM) | relative viability (Cabozantinib + OSI-027; first compound 0.06325 µM) | relative viability (Cabozantinib + OSI-027; first compound 0.2 µM) | relative viability (Cabozantinib + OSI-027; first compound 0.6325 µM) | relative viability (Cabozantinib + OSI-027; first compound 2 µM) | relative viability ([1]; first compound 0.02 µM) | relative viability ([1]; first compound 0.06325 µM) | relative viability ([1]; first compound 0.6325 µM) | relative viability ([1]; first compound 2 µM) | relative viability (Kobe2602 + Alpelisib; first compound 0.2 µM) | relative viability (Kobe2602 + Alpelisib; first compound 0.6325 µM) | relative viability (Kobe2602 + Alpelisib; first compound 2 µM) | relative viability (Kobe2602 + Alpelisib; first compound 6.325 µM) | relative viability (Kobe2602 + Alpelisib; first compound 20 µM) | relative viability ([1]; first compound 0.2 µM)
PC-14 | 0.253 | 0.253 | 0.259 | 0.211 | 0.139 | 0.388 | 0.973 | 0.0936 | 1.03 | 0.865 | 0.113 | 0.141 | 0.126 | 0.129 | 0.822 | 0.948 | 0.863 | 0.962 | 0.989 | –
NCI-H2347 | 0.377 | 0.282 | 0.315 | 0.364 | 0.414 | 0.303 | 0.42 | 0.45 | – | 0.294 | 0.422 | 0.481 | 0.442 | 0.371 | 0.972 | 1.01 | 0.969 | 1.08 | 1.09 | 0.429
NCI-H1793 | 0.367 | 0.4 | 0.361 | 0.397 | 0.398 | 0.196 | 0.254 | 0.198 | 0.253 | 0.197 | 0.865 | 0.917 | 0.73 | 0.588 | 0.629 | 0.615 | 0.589 | 0.684 | 0.847 | –
NCI-H650 | 0.429 | 0.564 | 0.501 | 0.517 | 0.5 | – | 0.567 | 0.552 | 0.544 | 0.535 | 0.792 | 1.07 | 0.941 | 0.916 | 1.06 | 1.28 | 1.12 | 1.14 | 1.08 | 0.964
NCI-H596 | 0.57 | 0.678 | 0.57 | 0.661 | 0.644 | 0.922 | 0.738 | 0.65 | 0.667 | 0.54 | 0.485 | 0.525 | 0.52 | 0.54 | 0.489 | 0.438 | 0.46 | 0.453 | 0.415 | 0.487
